Test results reported in US9701625B2, “Nitrone compounds and their use in personal care” (Dow Global Technologies LLC, priority 2014, dated 2017).

Test: Oxygen Radical Absorbance Capacity (ORAC) protocol
Conditions: for TEAC: Trolox equivalent AO capacity calculated from ORAC values; for TEAC values compared to the compounds of the invention: in words
Experimental: Antioxidant potential is evaluated using the Oxygen Radical Absorbance Capacity (ORAC) protocol. ORAC is a chemical in-vitro method based on the hydrogen atom transfer (HAT) mechanism (see N. Re et al., Free Radical Biology & Medicine, 26 (9/10), 1231 (1997)). ORAC measures antioxidant inhibition of peroxyl radical induced oxidations and thus reflects classical radical chain breaking antioxidant activity by H atom transfer. In this assay, the peroxyl radical reacts with a fluorescent probe to form a non-fluorescent product. This is quantitated using a fluorescence measurement. Antioxidant capacity is determined by decreased rate and amount of product formed over time. This assay depends upon the free radical damage to the fluorescent probe resulting in the change in its fluorescence intensity. The change of fluorescence intensity is an indicator of the degree of free radical damage. In the presence of an antioxidant, the inhibition of free radical damage is reflected in higher fluorescence intensity and can be measured as antioxidant capacity against the free radicals. The uniqueness of ORAC assay is that the reaction is driven to completion. This allows calculation of the area under the curve (AUC) and gives an absolute quantitation of antioxidancy as opposed to relative measurements in many other assays.
As noted, the longer it takes to observe a decrease in fluorescence, the higher the antioxidant (AO) potential. From the AUC for a given antioxidant, the AUC for blank is subtracted to give its ORAC value. The concentration of AO needed to give the same AUC values as Trolox is calculated and used to represent the Trolox equivalent AO Capacity (TEAC). Trolox is ((±)-6-Hydroxy-2,5,7,8-tetramethylchromane-2-carboxylic acid, CAS #53188-07-1), and is used as an internal control.
The ORAC test is conducted in the compounds of Table 1 above (inventive compounds) as well as to Vitamin C, Vitamin E, and the following comparative compounds:
The inventive nitrones in the ORAC test solutions were at a concentration of 30 micromolar, while the concentrations of Trolox, Vitamin C, Vitamin E, BHT, PBN+BHT, and VAL-IPHA were at 100 micromolar. The TEAC values calculated from the ORAC values are listed the Table 2.

[1] = inventive nitrones at 30 micromolar
[2] = test concentration 100 micromolar

COc1cc(/C=[N+](\[O-])Cc2ccc(O)cc2O)ccc1O [compound 1]
TEAC [1]: 6.45

Vitamin E
TEAC [2]: 0.13

O=C1O[C@H]([C@@H](O)CO)C(O)=C1O [Vitamin C]
TEAC [2]: 0.76

Cc1cc(C(C)(C)C)c(O)c(C(C)(C)C)c1 [BHT]
TEAC [2]: 0.11-0.21 | TEAC values compared to the compounds of the invention: not very high

[O-]/[N+](=C\c1ccc(O)cc1)Cc1ccc(O)cc1 [compound 2]
TEAC [1]: 2.94

CCCC/C=[N+](\[O-])C(C)C [VAL-IPHA]
TEAC [2]: 0.18 | TEAC values compared to the compounds of the invention: not very high

CC(C)(C)/[N+]([O-])=C/c1ccccc1 [PBN]
TEAC values compared to the compounds of the invention: not very high
